Data from the METLIN SMRT retention time set (Domingo-Almenara et al. 2019).

Test: gradient 5% acetonitrile 3 min, to 50% in 2 min, to 85% in 15 min, held 3 min, 100 µL/min
Conditions: column: Zorbax Extend-C18 2.1 x 50 mm; eluents: water / acetonitrile, 0.1% formic acid
In short: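 The mobile phases were water and acetonitrile, each with 0.1% formic acid, pumped at 100 μL/min through a Zorbax Extend-C18 column (2.1 × 50 mm, 1.8 μm). Pure standards were injected as mixtures of ~100 molecules and detected by a quadrupole time-of-flight mass spectrometer in positive and negative ionization mode. Retention time came from computationally picked adduct peaks, each inspected by hand.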

| SMILES | RP-LC retention time [s] |
| --- | --- |
| COCC(=O)NC1CCC12CCN(C(C)=O)CC2 (centres undefined) | 589 |
| CCOc1cccc(-c2noc(Cn3ccnc3CC)n2)c1 | 668 |
| O=S(=O)(CCOc1ccccc1)N1CCN(c2ccccc2F)CC1 | 1010 |
| CSc1nnc(-c2nn(C)c3c2CN(C(=O)c2cccc(F)c2)CC3)n1C | 693 |
| O=C(NCc1cccnc1)C1CN(S(=O)(=O)c2cccnc2)CC12CCCCC2 (centres undefined) | 595 |
| O=C1NC(=O)/C(=C\c2ccccc2Br)S1 | 821 |
| COc1ccc(Cl)cc1NC(=O)N1CCN(c2cc(C)nc(Nc3ccc(C)cc3)n2)CC1 | 798 |
| O=C(NCc1cccnc1)c1cc(-c2ccc3c(c2)OCO3)nc2ccccc12 | 665 |
| O=C1CC(c2noc(-c3cc(F)ccc3F)n2)CN1c1ccc(F)cc1 (centres undefined) | 944 |
| Cc1nc(CC(=O)NC(C)c2ccccc2)sc1C(=O)NCc1ccccc1 (centres undefined) | 820 |
| COc1ccccc1NC(=O)CSCC(=O)N1CCC(C(N)=O)CC1 | 619 |
| O=C(CSc1ccc(F)cc1)Nc1ccc2c(c1)N(C(=O)c1ccccc1)CCC2 | 874 |
| O=C(Cn1cccc(-c2nc(-c3ccc(Br)cc3)no2)c1=O)NCc1ccc(F)cc1 | 952 |
| Cc1nn(C)c(C)c1S(=O)(=O)N1CCC(c2noc(-c3ccccc3)n2)C1 (centres undefined) | 856 |
| CC1CN(S(=O)(=O)c2cccc(-c3cn4ccccc4n3)c2)CC(C)O1 (centres undefined) | 640 |
| Cc1cccc(C(=O)Nc2ccc(N3CCN(C4CCCC4)C3=O)nc2)c1 | 888 |
| CCc1cccc(NC(=O)c2cn(CC)nc2S(=O)(=O)N2CCSCC2)c1 | 1080 |
| CC(=O)Nc1ccc(-c2noc(C3CCCN(C(=O)CCC4CCCC4)C3)n2)cc1 (centres undefined) | 923 |
| Cc1nnc(C2CCCN(C(=O)Cn3c(=O)oc4ccccc43)C2)s1 (centres undefined) | 633 |
| CN(C(=O)Cc1ccc(Cl)c(Cl)c1)C(CN1CCCC1)c1cccc(OCC(=O)O)c1 (centres undefined) | 770 |
| CCOC(=O)c1c(C)[nH]c(C(=O)N2CCCC(C(=O)NC3CCCCCC3)C2)c1C (centres undefined) | 892 |
| Cc1ccn2c(NC(=O)COc3ccc(Cl)cc3)c(-c3ccc(F)cc3)nc2c1 | 759 |
| CCC(=O)N1CCc2ccccc2C1C(=O)NCCCN1CCCC1=O (centres undefined) | 646 |

| SMILES | RP-LC retention time [s] |
| --- | --- |
| COc1cccc(CC(=O)Nc2nnc(SCc3nnc(-c4ccccc4C)o3)s2)c1 | 922 |
| CCCc1noc(-c2ccc3nnc(CC(=O)NC4CCCCC4)n3c2)n1 | 826 |
| O=C(c1ccc(F)c(F)c1)N1CCC2(CC1)N=C(c1cccc(Br)c1)NO2 | 935 |
| Cc1ccccc1CNC(=O)C1(C)CCN(S(=O)(=O)c2cccc(Cl)c2C)CC1 | 1090 |
| COc1ccc(-c2csc(NC(=O)Cn3c(=O)oc4ccccc43)n2)cc1 | 933 |
| Cc1cc(N2CCN(C(=O)Nc3cccc(C)c3C)CC2)nc(N2CCOCC2)n1 | 633 |
| O=C(Nc1nc(CCC(=O)N2CCn3c2nc2ccccc23)cs1)c1ccc(F)cc1 | 721 |
| CCn1cc(S(=O)(=O)NCc2cccc(C)c2)c2cccnc21 | 845 |
| CCc1nc2cc(-c3noc(-c4ccsc4)n3)ccc2o1 | 1100 |
| CCc1cc2c(N3CCCC(C(=O)NCCCN4CCN(C)CC4)C3)ncnc2s1 (centres undefined) | 585 |
| Cn1c(=O)n(C)c2cc(N3CCOCC3)c(NC(=O)COc3ccc(Cl)cc3)cc21 | 899 |
| CCc1cccc(NS(=O)(=O)c2c(C)sc(C)c2-c2cc(C)[nH]n2)c1 | 1130 |
| COc1cc([C@H]2c3cc4c(cc3[C@@H](O)[C@H](CO)[C@H]2C(=O)N2CCCc3ccccc32)OCO4)cc(OC)c1OC | 734 |
| COc1ccc(CN2CCC3(CC2)CC(C)(O)CCO3)cc1OC (centres undefined) | 583 |
| COc1ccc(NC(=O)N2CCC(n3c(C(F)(F)F)nc4cccnc43)CC2)cc1OC | 768 |
| CCN1CCN(c2nc(F)c(F)c(S(=O)(=O)CCN3C(=O)CCC3=O)c2F)CC1 | 582 |
| CCc1ccccc1NC(=O)CSc1cc(N2CCN(c3ccc(OC)cc3)CC2)ncn1 | 1010 |
| O=C(C1CCCN(c2ncnc3c2nc2n3CCCCC2)C1)N1CCc2ccccc21 (centres undefined) | 860 |
| CCOc1cc(-c2nc(C3CC(=O)N(c4ccc(CC)cc4)C3)no2)cc(OCC)c1OCC (centres undefined) | 1300 |
| Cc1cccc(Oc2nccn3c(=O)n(CC(=O)NC(C)CCc4ccccc4)nc23)c1C (centres undefined) | 976 |
| Cc1ccccc1OCC(=O)NC(C)c1ccccc1 (centres undefined) | 903 |
| CC(C(=O)N1CCCc2ccccc21)n1nc(-c2ccc3c(c2)OCCO3)ccc1=O (centres undefined) | 871 |
| CCOc1cc(CNC(=O)c2ccc3c(c2)N(C)C(=O)c2ccccc2O3)cc(OCC)c1OCC | 973 |

| SMILES | RP-LC retention time [s] |
| --- | --- |
| Cc1ccc2c(Nc3ccc4c(c3)OCO4)c(C(=O)N3CCCC3)cnc2n1 | 591 |
| CCCN1C(=O)c2cc(S(=O)(=O)N3CCCCC3C)ccc2Oc2cccnc21 (centres undefined) | 1170 |
| Cc1oc(-c2cccc(Cl)c2)nc1Cn1nnc(-c2nc(-c3cccc(F)c3)no2)c1C | 1360 |
| CCN1CCN(C(=O)c2cn(-c3ccc(S(=O)(=O)N4CCCC(C)C4)cn3)cn2)CC1 (centres undefined) | 659 |
| COC(=O)c1ccc(-c2csc(NC(=O)c3cc(C)no3)n2)cc1 | 846 |
| CC1=C(c2ccccc2)S(=O)(=O)N=C1N1CCCN(C(=O)C2CC2)CC1 | 991 |
| O=C(NC1CCCC1)C1CCCCN1S(=O)(=O)c1ccc(Br)cc1 (centres undefined) | 1040 |
| COc1ccc(OC)c(S(=O)(=O)N2CCCC(C)(C(=O)NCc3ccc(F)cc3)C2)c1 (centres undefined) | 916 |
| CCCn1cc(S(=O)(=O)Nc2ccc(C)cc2)c2cccnc21 | 937 |
| COc1cccc(-c2cc(=O)n3c4ccccc4n(CC(=O)Nc4ccc5c(c4)OCO5)c3n2)c1 | 924 |
| NC(=O)C1CCN(C(=O)c2cccc(NC(=O)c3nsc4ccccc34)c2)CC1 | 703 |
| CC(C)(NC(=O)c1cnccn1)c1nc2c(c(C(N)=O)n1)OCO2 | 598 |
| CCNC(=O)C1CCCN(c2nc3ncn(CC(=O)NC4CCCCC4)c(=O)c3s2)C1 (centres undefined) | 658 |
| CN(CC1CCOCC1)C(=O)Nc1cccc(F)c1 | 720 |
| CC(C)NC(=O)C1CCN(Cc2cc3ccccc3n2Cc2ccccc2)CC1 | 710 |
| CCn1ccc(C(=O)NC2CCN(C3=NS(=O)(=O)C(c4ccccc4)=C3C)CC2)n1 | 746 |
| Cc1ccc(NC(=O)N2CCc3c(c(-c4nc(C5CC5)no4)nn3C)C2)c(C)c1 | 834 |
| Cc1nc(-c2ccc(N3CCN(C(=O)c4ccccc4F)CC3)nc2)sc1C | 873 |
| Cc1ccc(-c2nnc(N3CCC(C(=O)NCCN4CCCCCC4)CC3)o2)cc1 | 632 |
| Cc1c(NC(=O)C(C)C)c(=O)n(-c2ccccc2)n1C | 745 |
| Cc1ccc(CNC(=O)CCCn2c(=O)c3sccc3n(CC(=O)N3CCCCC3C)c2=O)cc1 (centres undefined) | 859 |
| CC(C)CCN1CCC(N2CCN(C(=O)CC(C)C)CC2)C1=O (centres undefined) | 579 |
| COCCC1(NC(=O)c2ocnc2C)CCN(S(C)(=O)=O)CC1 | 614 |

| SMILES | RP-LC retention time [s] |
| --- | --- |
| CCn1nccc1C(=O)N1CCc2c(-c3ccc(OC)cc3)cccc2[C@H]1C | 1040 |
| COc1cccc(OC)c1OCCNCC1CSc2ccccc2O1 (centres undefined) | 815 |
| COCc1cn(C2CN(C(=O)c3cc(C)nn3C)C2)nn1 | 581 |
| Cc1ccc(NC(=O)NC2CCN(c3ccccc3)C2=O)cc1F (centres undefined) | 855 |
| Cc1cc(-c2nnc(SCC(N)=O)o2)c(C)o1 | 625 |
| Cn1cnc2c(C(=O)NCC3CCCO3)nn(-c3ccc(Cl)cc3)c2c1=O (centres undefined) | 715 |
| O=C(Nc1ccc2c(c1)OCCO2)N1CCCC(Cn2cnc3cccnc32)C1 (centres undefined) | 637 |
| COCCCNC(=O)N1CCCCCC1c1ccccc1Cl (centres undefined) | 933 |
| O=C(NCCc1cccs1)c1cccc2c1CCN2C(=O)Nc1ccccc1 | 895 |
| O=C(NCc1ccco1)C1CCN(c2ncccc2-c2nc(-c3ccc(Cl)cc3)no2)CC1 | 1090 |
| CCOC(=O)c1c(S(=O)(=O)N2CCC(C(=O)Nc3cccc(OC)c3)CC2)c(C)n(C)c1C | 834 |
| Cc1ccc(-c2nc3nc4c(c(N5CCCC5)n3n2)CCC4)cc1 | 909 |
| CCOC(=O)c1[nH]c(C)c(CCC(=O)N2CCC(C(=O)NC3CCCC3)CC2)c1C | 729 |
| Cc1ccc(NS(=O)(=O)c2cc(-c3[nH]ncc3C(=O)N(C)C)oc2C)cc1F | 713 |
| Cn1c(=O)c(-c2noc(C(=O)N3CCN(c4ccccn4)CC3)n2)nn(-c2ccc(F)cc2)c1=O | 666 |
| O=C(Nc1ccc(C(=O)N2CCOCC2)c(N2CCCCCC2)c1)C1CC1 | 743 |
| COC(=O)c1cc2c(=O)n(-c3ccc(NC(C)=O)cc3)ccc2nc1C | 675 |
| CCOc1ccc(CN2CCc3nc(N4CCOCC4)ncc3C2)cc1OCC | 577 |
| CN(CC1CCOC1)C(=O)Nc1cccc(Br)c1 (centres undefined) | 716 |
| COc1cc(NC(=O)Nc2nccn(-c3ccccc3)c2=O)cc(OC)c1 | 886 |
